Assay results reported in patent publication US8975265B2, “Substituted imidazo[1,2-a]pyrimidines and —pyridines” (Bayer Intellectual Property GmbH, priority 2010, dated 2015).

Assays:
[1] = system: UACC-62 (melanoma); assay: Tumor cell proliferation assay, UACC-62; format: cell-based; settings: Homo sapiens, 72h drug exposure, read-out: median IC50
Protocol: (§1) Biological Assay 4.0: Tumor Cell Proliferation Assays
(§2) Compounds were tested in a cell-based assay that measures the capacity of the compounds to inhibit tumour cell proliferation following a 72h drug exposure. Cell viability is determined using CellTiter-Glow® (CTG, Promega, cat# G7571/2/3). The CellTiter-Glo® Luminescent Cell Viability Assay is a homogeneous method to determine the number of viable cells in culture. Detection is based on using the luciferase reaction to measure the amount of ATP from viable cells. The amount of ATP in cells correlates with cell viability. Within minutes after a loss of membrane integrity, cells lose the ability to synthesize ATP, and endogenous ATPases destroy any remaining ATP; thus the levels of ATP fall precipitously.
(§3) Cells were plated at 3000-5000 cells/well (depending on the cell lines) in 90 μL growth medium on MTPs (Corning; #3603, black plate, clear flat bottom). For each cell line assayed, cells were plated onto a separate plate for determination of […] at t=0 hour and t=72 hour time points. Following overnight incubation at 37° C., chemiluminescence values for the t=0 samples were determined after adding 10 μl medium and 100 μl CTG solution according to manufacture protocol. […] Chemiluminescence values for the t=72 hour samples were determined. […]

[2] = system: HT-144 (melanoma); assay: Tumor cell proliferation assay, HT-144; format: cell-based; settings: Homo sapiens, 72h drug exposure, read-out: median IC50
Protocol: as §1, §2, §3

[3] = system: A2058 (melanoma); assay: Tumor cell proliferation assay, A2058; format: cell-based; settings: Homo sapiens, 72h drug exposure, read-out: median IC50
Protocol: as §1, §2, §3

[4] = system: A375 (melanoma); assay: Tumor cell proliferation assay, A375; format: cell-based; settings: Homo sapiens, A-375, 72h drug exposure, read-out: median IC50
Protocol: as §1, §2, §3

[5] = system: Malme-3M (melanoma); assay: Tumor cell proliferation assay, Malme-3M; format: cell-based; settings: Homo sapiens, 72h drug exposure, read-out: median IC50
Protocol: as §1, §2, §3

[6] = system: HMCB (melanoma); assay: Tumor cell proliferation assay, HMCB; format: cell-based; settings: Homo sapiens, 72h drug exposure, read-out: median IC50
Protocol: as §1, §2, §3

[7] = system: KPL-4 breast cancer cell line; assay: Tumor cell proliferation assay (CellTiter-Glo, 72 h), KPL-4; format: cell-based; settings: KPL4, 72h drug exposure
In short: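 KPL-4 cells were treated with compound for 72 h at 37°C. Viability was measured as ATP by CellTiter-Glo luminescence, with a separate t=0 plate read after overnight attachment. A reference compound was run as standard.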

[8] = system: U87 (brain); assay: Tumor cell proliferation assay, U87; format: cell-based; settings: 72h drug exposure, read-out: median IC50
Protocol: as §1, §2, §3

[9] = system: UACC-257 (melanoma); assay: Tumor cell proliferation assay, UACC-257; format: cell-based; settings: Homo sapiens, 72h drug exposure, read-out: median IC50
Protocol: as §1, §2, §3

[10] = system: H1993 (NSCLC); assay: Tumor cell proliferation assay, H1993; format: cell-based; settings: Homo sapiens, NCI-H1993, 72h drug exposure, read-out: median IC50
Protocol: as §1, §2, §3

[11] = system: SK-Mel-28 (melanoma); assay: Tumor cell proliferation assay, SK-Mel-28; format: cell-based; settings: Homo sapiens, 72h drug exposure, read-out: median IC50
Protocol: as §1, §2, §3

[12] = system: MeWo (melanoma); assay: Tumor cell proliferation assay, MeWo; format: cell-based; settings: Homo sapiens, 72h drug exposure, read-out: median IC50
Protocol: as §1, §2, §3

[13] = system: p-AKT1/2/3-S473 in KPL4 breast tumour cell line; assay: Cellular p-AKT1/2/3-S473 assay; format: cell-based; settings: KPL4 breast tumour cell line, 2 hours treatment; read-out: pAKT-S743 median IC50
In short: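 KPL4 cells (PIK3CA H1047R, HER2 0/E, hormone independent) were seeded at 60–80% confluency, cultured overnight, then exposed to compound for 2 h at 37 °C. pAKT-S473 and total AKT measured together by MSD Akt Duplex on 20 µg extract; pAKT expressed as % of total AKT, at least duplicate with independent repeats.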

[14] = biological target: His-tagged human recombinant kinase full-length Akt1 (Homo sapiens (Human), UniProt P31749); assay: Akt1 kinase assay (TR-FRET); format: biochemical; settings: 10 μM ATP; read-out: Akt1, median IC50
Sequence of His-tagged human recombinant kinase full-length Akt1 (P31749 whole entry): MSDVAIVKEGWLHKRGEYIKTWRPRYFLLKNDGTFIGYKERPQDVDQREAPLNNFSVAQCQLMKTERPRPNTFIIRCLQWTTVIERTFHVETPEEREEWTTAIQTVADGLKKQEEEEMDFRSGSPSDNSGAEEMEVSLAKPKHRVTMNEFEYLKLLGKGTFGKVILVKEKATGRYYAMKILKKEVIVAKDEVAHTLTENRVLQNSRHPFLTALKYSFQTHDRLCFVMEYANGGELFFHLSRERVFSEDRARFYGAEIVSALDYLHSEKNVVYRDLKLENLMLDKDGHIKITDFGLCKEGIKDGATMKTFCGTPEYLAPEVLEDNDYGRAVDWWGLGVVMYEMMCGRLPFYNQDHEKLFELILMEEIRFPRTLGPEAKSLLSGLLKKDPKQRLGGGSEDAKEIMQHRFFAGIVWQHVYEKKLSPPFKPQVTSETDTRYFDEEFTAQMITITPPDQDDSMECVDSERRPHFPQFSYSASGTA
In short: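 Full-length His-tagged Akt1 (about 0.05 ng/μl final) preincubated 15 min at 22 °C with compound in 50 mM TRIS/HCl pH 7.5, 5 mM MgCl2, 1 mM DTT, 0.02% Triton X-100; biotinylated peptide substrate. Phosphopeptide detected by TR-FRET (Eu-chelate antibody to streptavidin-XL665) after 1 h at 22 °C.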

| IC50 [1] | IC50 [2] | IC50 [3] | IC50 [4] | IC50 [5] | IC50 [6] | IC50 [7] | IC50 [8] | IC50 [9] | IC50 [10] | IC50 [11] | IC50 [12] | IC50 [13] | IC50 [14] | Structure (SMILES) |
| --- | --- | --- | --- | --- | --- | --- | --- | --- | --- | --- | --- | --- | --- | --- |
| 2200 nM | 2300 nM | 2200 nM | 2200 nM | 1900 nM | 2600 nM | 1700 nM | 4900 nM | 1100 nM | 600 nM | 2000 nM | 2000 nM |  |  | NC1(c2ccc(-c3nc4nc(-c5ccccc5)ccn4c3-c3ccccc3)cc2)CCC1 [Example 1-3] |
| 8900 nM | 2100 nM | 2100 nM | 8600 nM | 2400 nM | 8500 nM | 800 nM | 10000 nM | 2000 nM | 500 nM | 3700 nM | 5200 nM | 30 nM | 142 nM | COc1ccn2c(-c3ccccc3)c(-c3ccc(C4(N)CCC4)cc3)nc2n1 [Example 2-0, 1-[4-(7-methoxy-3-phenyl-imidazo[1,2-a]pyrimidin-2-yl)-phenyl]-cyclobutylamine] |
